Data as given in US8188082B2, “5,6,7,8-tetrahydro-imidazo[1,5-α]pyrazine derivatives” (Actelion Pharmaceuticals Ltd., priority 2006, dated 2012).

Key:
human orexin-2 receptor = target: T1, human orexin-2 receptor (Homo sapiens, UniProt O43614); test: Intracellular calcium measurements (FLIPR), orexin receptor antagonistic activity, OX2; type: cell-based; conditions: CHO cells expressing human orexin-2 receptor; 10 nM orexin-A as agonist
T1 construct: expressed in transfected cells; host or cells: CHO cells (G418 selection)
T1 sequence (O43614 1-444): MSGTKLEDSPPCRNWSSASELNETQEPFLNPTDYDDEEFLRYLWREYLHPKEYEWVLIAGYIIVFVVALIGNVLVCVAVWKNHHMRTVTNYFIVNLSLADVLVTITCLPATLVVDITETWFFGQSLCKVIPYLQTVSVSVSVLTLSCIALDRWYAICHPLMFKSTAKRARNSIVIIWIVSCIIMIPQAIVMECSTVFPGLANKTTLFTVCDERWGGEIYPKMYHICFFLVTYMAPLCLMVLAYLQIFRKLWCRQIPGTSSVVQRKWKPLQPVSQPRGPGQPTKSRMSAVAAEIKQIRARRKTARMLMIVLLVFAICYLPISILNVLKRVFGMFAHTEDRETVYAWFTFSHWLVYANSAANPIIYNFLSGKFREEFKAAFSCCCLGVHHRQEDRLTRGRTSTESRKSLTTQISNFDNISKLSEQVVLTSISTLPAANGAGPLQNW
Description: (§1) Intracellular Calcium Measurements:
(§2) Chinese hamster ovary (CHO) cells expressing the human orexin-1 receptor and the human orexin-2 receptor, respectively, are grown in culture medium (Ham F-12 with L-Glutamine) containing 300 μg/ml G418, 100 U/ml penicillin, 100 μg/ml streptomycin and 10% inactivated fetal calf serum (FCS). The cells are seeded at 80,000 cells/well into 96-well black clear bottom sterile plates (Costar) which have been precoated with 1% gelatine in Hanks' Balanced Salt Solution (HBSS). All reagents are from Gibco BRL. The seeded plates are incubated overnight at 37° C. in 5% CO2.
(§3) Human orexin-A as an agonist is prepared as 1 mM stock solution in MeOH:water (1:1), diluted in HBSS containing 0.1% bovine serum albumin (BSA) and 2 mM HEPES for use in the assay at a final concentration of 10 nM.
(§4) Antagonists are prepared as 10 mM stock solution in DMSO, then diluted in 96-well plates, first in DMSO, then in HBSS containing 0.1% bovine serum albumin (BSA) and 2 mM HEPES.
(§5) On the day of the assay, 100 μl of loading medium (HBSS containing 1% FCS, 2 mM HEPES, 5 mM probenecid (Sigma) and 3 μM of the fluorescent calcium indicator fluo-3 AM (1 mM stock solution in DMSO with 10% pluronic acid) (Molecular Probes) is added to each well.
(§6) The 96-well plates are incubated for 60 min at 37° C. in 5% CO2. The loading solution is then aspirated and cells are washed 3 times with 200 μl HBSS containing 2.5 mM probenecid, 0.1% BSA, 2 mM HEPES. 100 μl of that same buffer is left in each well.
(§7) Within the Fluorescent Imaging Plate Reader (FLIPR, Molecular Devices), antagonists are added to the plate in a volume of 50 μl, incubated for 20 min and finally 100 μl of agonist is added. Fluorescence is measured for each well at 1 second intervals, and the height of each fluorescence peak is compared to the height of the fluorescence peak induced by 10 nM orexin-A with buffer in place of antagonist. For each antagonist, IC50 value (the concentration of compound needed to inhibit 50% of the agonistic response) is determined.

human orexin-1 receptor = target: T2, human orexin-1 receptor (Homo sapiens, UniProt O43613); test: Intracellular calcium measurements (FLIPR), orexin receptor antagonistic activity, OX1; type: cell-based; conditions: CHO cells expressing human orexin-1 receptor; 10 nM orexin-A as agonist
T2 construct: expressed in transfected cells; host or cells: CHO cells (G418 selection)
T2 sequence (O43613 1-425): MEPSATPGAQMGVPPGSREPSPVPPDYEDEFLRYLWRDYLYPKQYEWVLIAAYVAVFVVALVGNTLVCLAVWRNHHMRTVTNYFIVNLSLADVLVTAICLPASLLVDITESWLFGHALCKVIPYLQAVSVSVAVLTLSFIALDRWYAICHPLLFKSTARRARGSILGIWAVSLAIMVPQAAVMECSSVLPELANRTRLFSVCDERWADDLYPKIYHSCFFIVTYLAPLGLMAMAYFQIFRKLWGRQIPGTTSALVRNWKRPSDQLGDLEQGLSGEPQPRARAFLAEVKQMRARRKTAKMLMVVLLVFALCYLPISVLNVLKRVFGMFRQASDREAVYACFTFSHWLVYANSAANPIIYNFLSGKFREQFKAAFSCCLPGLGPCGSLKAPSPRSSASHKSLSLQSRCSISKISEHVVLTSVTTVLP
Description: as §1, §2, §3, §4, §5, §6, §7

Row | SMILES | IC50 (human orexin-2 receptor) [nM] | IC50 (human orexin-1 receptor) [nM]
1 | CNC(=O)[C@@H](c1ccccc1)N1CCn2c(C)nc(Cl)c2C1CCc1ccc(C)c(C)c1 (mixture of isomers) [11 (8S; 2′R)/(8R; 2′R)] | 11 | 36
2 | CNC(=O)[C@@H](c1ccccc1)N1CCn2c(COC)nc(Cl)c2C1CCc1ccc(C(F)(F)F)cc1 (mixture of isomers) [16 (8S; 2′R)/(8R; 2′R)] | 33 | 2060
3 | CNC(=O)[C@@H](c1ccccc1)N1CCn2c(C)nc(C)c2C1CCc1ccc(OC)cc1OC (mixture of isomers) [25 (8S; 2′R)/(8R; 2′R)] | 115 | ≥ 10000
4 | CNC(=O)[C@@H](c1ccccc1)N1CCn2c(Cl)nc(Cl)c2C1CCc1ccc(C(F)(F)F)cc1 (mixture of isomers) [33 (8S; 2′R)/(8R; 2′R)] | 11 | 279
5 | CNC(=O)[C@@H](c1ccccc1)N1CCn2c(C)nc(Cl)c2[C@H]1CCc1cc(F)c(C)c(F)c1 [10 (8R; 2′R), (R)-2′-{1-chloro-(R)-8-[2-(3,5-difluoro-4-methyl-phenyl)-ethyl]-3-methyl-5,6-dihydro-8H-imidazo[1,5-a]pyrazin-7-yl}-N-methyl-2′-phenyl-acetamide] | 14 | 72
6 | CCc1nc(C(F)(F)F)c2n1CCN([C@@H](C(=O)NC)c1ccccc1)[C@H]2CCc1ccc(C(F)(F)F)cc1 [15 (8S; 2′R), (R)-2′-{3-ethyl-1-trifluoromethyl-(S)-8-[2-(4-trifluoromethyl-phenyl)-ethyl]-5,6-dihydro-8H-imidazo[1,5-a]pyrazin-7-yl}-N-methyl-2′-phenyl-acetamide] | 15 | 807
7 | CCc1nc(OC)c2n1CCN([C@@H](C(=O)NC)c1ccccc1)[C@H]2CCc1ccc(C)c(C)c1 [27 (8S; 2′R), (R)-2′-{(S)-8-[2-(3,4-dimethyl-phenyl)-ethyl]-3-ethyl-1-methoxy-5,6-dihydro-8H-imidazo[1,5-a]pyrazin-7-yl}-N-methyl-2′-phenyl-acetamide] | 4 | 5
8 | C=Cc1nc(CC)n2c1[C@H](CCc1ccc(C(F)(F)F)cc1)N([C@@H](C(=O)NC)c1ccccc1)CC2 [28 (8S; 2′R), (R)-2′-{3-ethyl-(S)-8-[2-(4-trifluoromethyl-phenyl)-ethyl]-1-vinyl-5,6-dihydro-8H-imidazo[1,5-a]pyrazin-7-yl}-N-methyl-2′-phenyl-acetamide] | 29 | 176
9 | CCc1nc(Cl)c2n1CCN([C@@H](C(=O)NC)c1ccccc1)[C@H]2CCc1cc(F)c(OC)c(F)c1 [36 (8S; 2′R), (R)-2′-{1-chloro-(S)-8-[2-(3,5-difluoro-4-methoxy-phenyl)-ethyl]-3-ethyl-5,6-dihydro-8H-imidazo[1,5-a]pyrazin-7-yl}-N-methyl-2′-phenyl-acetamide] | 14 | 17
10 | CNC(=O)[C@@H](c1ccccc1)N1CCn2c(C)nc(C#N)c2[C@@H]1CCc1ccc(C(F)(F)F)c(F)c1 [43 (8S; 2′R), (R)-2′-{1-cyano-(S)-8-[2-(3-fluoro-4-trifluoromethyl-phenyl)-ethyl]-3-methyl-5,6-dihydro-8H-imidazo[1,5-a]pyrazin-7-yl}-N-methyl-2′-phenyl-acetamide] | 14 | 538
11 | CNC(=O)[C@@H](c1ccccc1)N1CCn2c(C)nc(C3CC3)c2[C@@H]1CCc1ccc(C(F)(F)F)cc1 [46 (8S; 2′R), (R)-2′-{1-cyclopropyl-3-methyl-(S)-8-[2-(4-trifluoromethyl-phenyl)-ethyl]-5,6-dihydro-8H-imidazo[1,5-a]pyrazin-7-yl}-N-methyl-2′-phenyl-acetamide] | 21 | 762
12 | CCc1nc(Cl)c2n1CCN([C@@H](C(=O)NC)c1ccccc1)[C@H]2COc1cccc(C(F)(F)F)c1 [53 (8R; 2′R), (R)-2′-[1-chloro-3-ethyl-(R)-8-(3-trifluoromethyl-phenoxymethyl)-5,6-dihydro-8H-imidazo[1,5-a]pyrazin-7-yl]-N-methyl-2′-phenyl-acetamide] | 2 | 412
